Data reported in US8080252B2, “Compounds and methods of modulating angiogenesis” (The Cleveland Clinic Foundation, priority 2006, dated 2011).
Non-standard residues stand in square brackets, D forms with d. No end group written: not given here. pY = N[C@@H](Cc1ccc(OP(=O)(O)O)cc1)C(=O)O

Assays:
Assay type in all cases: cell-based
[1] = test system: αvβ3 integrin; assay: Fibrinogen binding assay, WT and DiYF mouse lung endothelial cells (FACS); settings: 20 ng/ml VEGF or 1 mM MnCl2
Experimental: To assess fibrinogen binding, semiconfluent wild type and DiYF mouse lung endothelial cells were serum starved for 4 h and further induced with 20 ng/ml VEGF-165, 20 ng/ml b-FGF or 1 mm MnCl2. Fluorescein isothiocyanate (FITC)-labeled fibrinogen was added at a final concentration of 200 nM for 45 min. […] Fluorescence-activated cell sorting (FACS) was performed using a FACS Calibur (Becton Dickinson, San Jose, Calif.) and data were analyzed using CellQuest software program.

[2] = test system: αvβ3 integrin; assay: WOW-1 binding assay, WT and DiYF mouse lung endothelial cells (FACS); settings: 20 ng/ml VEGF or 1 mM MnCl2
Experimental: Wild type and DiYF mouse lung endothelial cells were serum starved for 4 h and further stimulated with 20 ng/ml VEGF-165, 20 ng/ml b-FGF or 1 mm MnCl2 separately. WoW-1 Fab was added at a final concentration of […], followed by addition of Fluorescein isothiocyanate (FITC) conjugated goat anti-mouse IgG at 10 μg/ml. After 30 min cells were fixed with 3.7% formaldehyde/PBS for 15 min, washed twice with 1×PBS and FACS was performed using a FACS Calibur (Becton Dickinson, San Jose, Calif.) instrument and data were analyzed using CellQuest software program.

[3] = test system: cells expressing αvβ3 integrin and VEGFR2; assay: Angiogenesis of cells expressing αvβ3 integrin and VEGFR2 with stimulating peptides; settings: both in the presence and the absence of VEGF

| Molecule | increase of fibrinogen binding ([1]; DiYF EC) | increase of fibrinogen binding ([1]; WT EC) | increase in WOW-1 binding ([2]; DiYF EC) | increase in WOW-1 binding ([2]; WT EC) | effect on angiogenesis [3] |
| --- | --- | --- | --- | --- | --- |
| [Cl][Mn][Cl] [MnCl2, reference compound] | 17 fold | at least 40 fold | 14 fold | 30 fold | – |
| KEATSTFTNITYpRGT-COOH (KEATSTFTNIT[pY]RGT-OH; N-terminus assumed; SMILES CC[C@H](C)[C@H](NC(=O)[C@H](CC(N)=O)NC(=O)[C@@H](NC(=O)[C@H](Cc1ccccc1)NC(=O)[C@@H](NC(=O)[C@H](CO)NC(=O)[C@@H](NC(=O)[C@H](C)NC(=O)[C@H](CCC(=O)O)NC(=O)[C@@H](N)CCCCN)[C@@H](C)O)[C@@H](C)O)[C@@H](C)O)C(=O)N[C@H](C(=O)N[C@@H](Cc1ccc(OP(=O)(O)O)cc1)C(=O)N[C@@H](CCCNC(=N)N)C(=O)NCC(=O)N[C@H](C(=O)O)[C@@H](C)O)[C@@H](C)O; listed as Homo sapiens) [SEQ ID NO: 15, stimulating peptide; β3 integrin cytoplasmic peptide specific for tyrosine-759] | – | – | – | – | promote angiogenesis |
| YGRKKRRQRRRGKEATSTFTNITYpRGT-COOH (YGRKKRRQRRRGKEATSTFTNIT[pY]RGT-OH; N-terminus assumed; SMILES CC[C@H](C)[C@H](NC(=O)[C@H](CC(N)=O)NC(=O)[C@@H](NC(=O)[C@H](Cc1ccccc1)NC(=O)[C@@H](NC(=O)[C@H](CO)NC(=O)[C@@H](NC(=O)[C@H](C)NC(=O)[C@H](CCC(=O)O)NC(=O)[C@H](CCCCN)NC(=O)CNC(=O)[C@H](CCCNC(=N)N)NC(=O)[C@H](CCCNC(=N)N)NC(=O)[C@H](CCCNC(=N)N)NC(=O)[C@H](CCC(N)=O)NC(=O)[C@H](CCCNC(=N)N)NC(=O)[C@H](CCCNC(=N)N)NC(=O)[C@H](CCCCN)NC(=O)[C@H](CCCCN)NC(=O)[C@H](CCCNC(=N)N)NC(=O)CNC(=O)[C@@H](N)Cc1ccc(O)cc1)[C@@H](C)O)[C@@H](C)O)[C@@H](C)O)C(=O)N[C@H](C(=O)N[C@@H](Cc1ccc(OP(=O)(O)O)cc1)C(=O)N[C@@H](CCCNC(=N)N)C(=O)NCC(=O)N[C@H](C(=O)O)[C@@H](C)O)[C@@H](C)O; listed as Homo sapiens) [SEQ ID NO: 13, stimulating peptide] | – | – | – | – | promote angiogenesis |
